From patent US20260167972A1, “AMINO ACID DERIVATIVES AS NOVEL DELIVERY AGENTS FOR FUNCTIONAL DELIVERY OF OLIGONUCLEOTIDES” (University of Rochester, priority 2022, published 2026) come the findings set out here.

Series [1] is described as follows: Dynamic light scattering of N-X-Phe-DAP/siRNA nanoparticles. The class given is physicochemical. To be noted: for Diameter (nm), DLS: N-X-Phe-DAP/siRNA nanoparticles, 5 μM derivative, 30 nM siRNA, ± standard deviation. The procedure:
Each N-X-Phe-DAP derivative (100 μM) was mixed with siRNA (600 nM) in H2O for 30 minutes, followed by dilution of this mixture into DMEM cell culture media to final concentrations of 5 μM N-X-Phe-DAP derivative and 30 nM siRNA. Dynamic light scattering (DLS) and transmission electron microscopy (TEM) were utilized to analyze the physical characteristics of the resulting N-X-Phe-DAP/siRNA nanoparticles (Table 2, FIG. 4). […] Average diameter (nm), determined by dynamic light scattering (DLS) and TEM imaging, is reported as the average of […] with the error reported as the standard deviation of the mean. Binding affinity (Kd) of each agent to siRNA was determined by a slot blot filtration assay with values reported as the average of three measurements and error reported as the standard deviation of the mean. […] (B) Diameter (nm) determined by TEM (n=9, ***p≤0.001 ****p≤0.0001).
Dynamic Light Scattering: N-X-Phe-DAP derivatives (100 μM) were complexed with siRNA (600 nM) in Ultrapure™ DNase/RNase-Free Distilled Water (Invitrogen 10977015) and allowed to incubate for 30 minutes at room temperature. These solutions were then diluted into water to give final concentrations of 5 μM Phe derivative and 30 nM siRNA. Dynamic light scattering measurements were taken using a DynaPro Plate Reader II. Diameter is reported as an average of 10 measurements using Dynamics software.

The target in series [2] is FITC-siRNA. The experiment in a line: Slot blot filtration binding affinity assay. The conditions noted are these: binding to siRNA (FITC-siRNA); average of three measurements ± standard deviation. The procedure: The binding affinity (Kd) of N-X-Phe-DAP derivatives to siRNA was next characterized to determine how the chemical functionality of the Phe derivatives impacts siRNA interactions. Comparative binding affinity (Kd) of N-X-Phe-DAP derivatives to fluorescently labeled FITC-siRNA was determined using a slot blot filtration assay (Table 2). […] Therefore, the decrease in binding affinity of Fmoc-F5-Phe-DAP for siRNA is likely due to competition between siRNA binding and self-assembly.
Slot Blot Binding Affinity Measurements (see FIGS. 39-48): Nitrocellulose (Bio-Rad, #1620112) and nylon membranes (VWR, #95038-400) were soaked in 100 mM Tris-HCl buffer for 20 minutes. The membranes were then stacked on two sheets of Bio-Rad SF thick filter paper (#1620161) in a Bio-Rad SF 48-well slot blot apparatus. 200 μL of 100 mM Tris-HCl buffer was added to each well to test for even vacuum distribution and for membrane rehydration three times. N-X-Phe-DAP derivatives were prepared in concentrations ranging from 4000 μM to 0 μM and incubated with FITC-siRNA (6.5 μL, 1 μM) for 30 minutes in the dark. 40 μL of each sample, in addition to 200 μL Tris-HCl buffer was run in triplicate and the apparatus was covered with aluminum foil for 20 minutes. The vacuum was opened, allowing for samples in the wells to penetrate the membranes. After closing the vacuum, 200 μL of Tris-HCl buffer was added to rinse each well followed by re-opening of the vacuum three times. Membranes were then dried and imaged on Bio-Rad ChemiDoc MS. Fluorescence intensity density measurements were made using Image J. The fraction bound of siRNA was calculated using the following equation, where Initro is the fluorescence intensity measured from the nitrocellulose membrane and Inylon is the fluorescence intensity measured from the nylon membrane:
This equation is as follows where Y is the fraction bound, X is the N-X-Phe-DAP concentration (μM), Bmax is the maximum binding, Kd is the binding affinity, and h is the Hill slope: […]

In series [3] the test system is A549 cells. As to the kind of experiment: MTT cytotoxicity assay. The class given is cell-based, human. The conditions noted are these: normalized to naïve control, ± SEM. The procedure:
A549 cells were dosed with 100 µM of these derivatives for 4 h (FIG. 7A), 24 h (FIG. 7B), and 48 h (FIG. 7C). FIG. 7 reports cell viability as percent viability of A549 cells normalized to naïve control. (A) Cell viability after 4 h dosing (n=3, *p≤0.05, **p≤0.01). (B) Cell viability after 24 h dosing (n=3, *p≤0.05, **p≤0.01). (C) Cell viability after 48 h dosing (n=3, *p≤0.05, **p≤0.01, ****p≤0.0001). […] An MTT assay was performed after dosing for 4 h, 24 h, 48 h, or 4 h with media change and additional 48 h incubation. Average values are reported with calculated standard error of the mean (SEM).
The cells will also recover after exposure to N-X-Phe-DAP derivatives under conditions that resemble knockdown experiments. Cells were dosed with N-X-Phe-DAP derivatives or Lipofectamine for 4 hours, after which the media was aspirated and replaced with DMEM cell culture media and incubated for an additional 48 hours (FIG. 8). This protocol mimics the gene knockdown experiments and acts as a better indication of how cytotoxicity may impact gene silencing measurements.
Sample Preparation for Cell-Based Experiments: For delivery analysis and functional knockdown, N-X-Phe-DAP derivatives (10 μL, 1 mM) or Lipofectamine 3000 (6 μL) was mixed with TTF-1 siRNA (Santa Cruz Biotechnology sc-36756, 6 μL, 10 μM) in Ultrapure™ DNase/RNase-Free Distilled Water (Invitrogen 10977015) to give a final volume of 100 μL. These mixtures were incubated for 30 minutes at room temperature, followed by dilution into 1×DMEM (Gibco 11965092, 1.9 mL). For cytotoxicity assays, N-X-Phe-DAP derivatives (10 μL, 1 mM) were diluted into 1×DMEM (Gibco 11965092, 1.9 mL).
MTT Cytotoxicity Assay: All cytotoxicity assays were performed in triplicate. A549 cells were seeded at a density of 2400 cells/well in a 96-well plate (200 μL) and grown to 70-90% confluency. Cells were washed with 1×PBS (200 μL), N-X-Phe-DAP derivatives were added (200 μL/well), and incubated 4 h, 24 h, or 48 h at 37° C., 5% CO2 or for 4 h at 37° C., 5% CO2 followed by washing with 1×PBS and addition of complete media containing 1×DMEM (Gibco 11965092), 10% fetal bovine serum (FBS, Invitrogen 26140087), and 1× antibiotic-antimycotic (Gibco 15240-062). A solution of thiazoyl blue tetrazolium bromide (MTT, 1 mg/mL) was prepared in 1×DMEM devoid of phenol red (Invitrogen 31053028). After the appropriate incubation time, cells were washed with 1×PBS, dosed with MTT (200 μL), and incubated an additional 1 h at 37° C., 5% C02 in the dark. The 96-well plate was centrifuged for 5 min at 4000 rpm, the media was aspirated, and DMSO (100 μL) was added to the wells. Absorbance measurements (550 nm) were taken on a Tecan Infinite M1000 Pro plate reader. Cell viability was then calculated and normalized to the naïve control.

Each structure is given as a SMILES string. Values joined by “and” are separate entries in the source; they are usually repeats but may differ in a detail not shown here. Equal entries are not always repeated. Some results are limits rather than exact numbers.

As to `NCCCNC(=O)[C@H](Cc1ccccc1)NC(=O)Cc1cccc2ccccc12` [1-Nap-Phe-DAP], the “Diameter (nm), DLS” value in series [1] was 221 ± 26 nm. In series [2], this molecule gave a Kd of 293 µM. For the same molecule, in series [3], the “Cell Viability (%) 4 h Dosing” value is 65.3 ± 3.7%, the “Cell Viability (%) 24 h Dosing” value is 69.5 ± 5.9%, the “Cell Viability (%) 48 h Dosing” value stood at 45.1 ± 3.1% and the “Cell Viability (%) Media Change After 4 h Followed by 48 h Incubation” value is listed as 56.5 ± 1.1%.
`NCCCNC(=O)[C@H](Cc1ccccc1)NC(=O)Cc1ccc2ccccc2c1` [2-Nap-Phe-DAP]: the “Diameter (nm), DLS” value in series [1] turned out to be 416 ± 33 nm. This molecule gave a Kd in series [2] of 186 µM. In addition, in series [3], the “Cell Viability (%) 4 h Dosing” value is on record as 50.4 ± 1.5%, the “Cell Viability (%) 24 h Dosing” value is reported as 58.3 ± 6.0%, the “Cell Viability (%) 48 h Dosing” value worked out at 44.3 ± 8.7% and the “Cell Viability (%) Media Change After 4 h Followed by 48 h Incubation” value came to 60.7 ± 1.6%.
With `NCCCNC(=O)[C@H](Cc1ccccc1)NC(=O)OCc1ccccc1` [Cbz-Phe-DAP], in series [1], the “diameter of siRNA nanoparticles by DLS and TEM measurements” value is approximately 100 nm; the “Diameter (nm), DLS” value stood at 94 ± 14 nm. The same molecule registered a dissociation constant (Kd) in series [2] of 97 µM. In addition, in series [3], the “Cell Viability (%) 4 h Dosing” value is 60.8 ± 3.8%, the “Cell Viability (%) 24 h Dosing” value amounted to 69.8 ± 8.2%, the “Cell Viability (%) 48 h Dosing” value was determined as 53.7 ± 3.0% and the “Cell Viability (%) Media Change After 4 h Followed by 48 h Incubation” value is recorded as 50.2 ± 3.4%.
Regarding `NCCCNC(=O)[C@H](Cc1ccccc1)NC(=O)C1CCCCC1` [Cyc-Phe-DAP], in series [1], the “diameter of siRNA nanoparticles by DLS and TEM measurements” value is given as approximately 100 nm; the “Diameter (nm), DLS” value was 125 ± 74 nm. The molecule also displayed a Kd in series [2] of 179 ± 8 µM. In addition, in series [3], the “Cell Viability (%) 4 h Dosing” value stood at 58.3 ± 9.2%; the “Cell Viability (%) 24 h Dosing” value was found to be 59.6 ± 4.9%; the “Cell Viability (%) 48 h Dosing” value amounted to 60.4 ± 2.6%; the “Cell Viability (%) Media Change After 4 h Followed by 48 h Incubation” value is 67% and 66.5 ± 5.1%.
On to `NCCCNC(=O)[C@H](Cc1ccccc1)NC(=O)CC1c2ccccc2-c2ccccc21` [Fm-Phe-DAP], for which the “Diameter (nm), DLS” value in series [1] is 139 ± 14 nm. Besides, the affinity in series [2], expressed as Kd, was 307 ± 34 µM. In series [3], the “Cell Viability (%) 4 h Dosing” value is listed as 60.7 ± 3.6%, the “Cell Viability (%) 24 h Dosing” value is 51.7 ± 4.4%, the “Cell Viability (%) 48 h Dosing” value is 26.7 ± 4.0% and the “Cell Viability (%) Media Change After 4 h Followed by 48 h Incubation” value was determined as 72.6 ± 7.4%.
Take `NCCCNC(=O)[C@H](Cc1cccc(F)c1)NC(=O)OCC1c2ccccc2-c2ccccc21` [Fmoc-3F-Phe-DAP]: the “Diameter (nm), DLS” value in series [1] came to 228 ± 18 nm. This molecule returned a Kd in series [2] of 131 µM. In series [3], the “Cell Viability (%) 4 h Dosing” value is listed as 59.9 ± 3.8%, the “Cell Viability (%) 24 h Dosing” value is 75.3 ± 5.0%, the “Cell Viability (%) 48 h Dosing” value was determined as 42.0 ± 2.4% and the “Cell Viability (%) Media Change After 4 h Followed by 48 h Incubation” value was 71.1 ± 6.3%.
On to `NCCCNC(=O)[C@H](Cc1c(F)c(F)c(F)c(F)c1F)NC(=O)OCC1c2ccccc2-c2ccccc21` [Fmoc-F5-Phe-DAP], for which the “Diameter (nm), DLS” value in series [1] is 202 ± 15 nm. In series [2], this molecule gave a Kd of 217 µM. Moreover, in series [3], the “Cell Viability (%) 4 h Dosing” value came out at 48.1 ± 5.9% and the “Cell Viability (%) Media Change After 4 h Followed by 48 h Incubation” value came to 54.2 ± 6.2%.
Consider `NCCCNC(=O)[C@H](Cc1ccccc1)NC(=O)OCC1c2ccccc2-c2ccccc21` [Fmoc-Phe-DAP], for which the “Diameter (nm), DLS” value in series [1] is listed as 156 ± 13 nm. The same molecule yielded a Kd in series [2] of 159 µM. Besides, in series [3], the “Cell Viability (%) 4 h Dosing” value is 76.3 ± 2.8%, the “Cell Viability (%) 24 h Dosing” value came out at 96.5 ± 3.2%, the “Cell Viability (%) 48 h Dosing” value amounted to 63.7 ± 5.1% and the “Cell Viability (%) Media Change After 4 h Followed by 48 h Incubation” value came to 76.1 ± 4.9%.
Take `CCCCCCC(=O)N[C@@H](Cc1ccccc1)C(=O)NCCCN` [Hex-Phe-DAP]: the “Diameter (nm), DLS” value in series [1] is 50 ± 6 nm. This molecule also showed a Kd in series [2] of 183 ± 9 µM. In addition, in series [3], the “Cell Viability (%) 4 h Dosing” value is 38.9 ± 3.7%; the “Cell Viability (%) 24 h Dosing” value amounted to 66.0 ± 5.5%; the “Cell Viability (%) 48 h Dosing” value is 52.1 ± 4.5%; the “Cell Viability (%) Media Change After 4 h Followed by 48 h Incubation” value is 53% and 53.1 ± 4.5%.
`NCCCNC(=O)[C@H](Cc1ccccc1)NC(=O)CCCc1ccc2ccc3cccc4ccc1c2c34` [Pyr-Phe-DAP]: the “Diameter (nm), DLS” value in series [1] was found to be 105 ± 8 nm. This molecule had a Kd in series [2] of 32 µM. Further, in series [3], the “Cell Viability (%) 4 h Dosing” value is reported as 17.2 ± 1.1%, the “Cell Viability (%) 24 h Dosing” value is reported as 2.6 ± 0.8% and the “Cell Viability (%) Media Change After 4 h Followed by 48 h Incubation” value is listed as 22.3 ± 2.7%. For the same molecule, in series [3] (listed as Fmoc-Pyr-DAP), the “Cell Viability (%) 4 h Dosing” value is on record as “less than 20%” and the “Cell Viability (%) 24 h Dosing” value is less than 3%.

Broadly, the Kd is the concentration at which binding is half-saturated. Low readings indicate higher affinity, high ones lower affinity.
